Measurements published in US7056947B2, “Aza-peptide epoxides” (Georgia Tech Research Corp., priority 2002, dated 2006).

Experiments:
Assay type in all cases: biochemical
papain = biological target: T1, papain (Carica papaya, UniProt P00784); assay: Inhibition of papain, incubation method; conditions: pH 7.5; second-order rate constant; NI = no inhibition; read-out: kobs/[I] papain
T1 sequence (P00784 134-345): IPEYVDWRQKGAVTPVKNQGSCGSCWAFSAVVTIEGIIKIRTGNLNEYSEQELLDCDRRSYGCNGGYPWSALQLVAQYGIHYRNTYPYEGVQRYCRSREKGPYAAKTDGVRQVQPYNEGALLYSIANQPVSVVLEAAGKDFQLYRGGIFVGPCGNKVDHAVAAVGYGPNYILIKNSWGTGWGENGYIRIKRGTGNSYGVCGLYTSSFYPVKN
Experimental: The release of 7-amino-4-methylcoumarin was monitored (λex=360 nm, λem=465 nm) using a Tecan Spectra Fluor microplate reader. Pseudo first-order inactivation rate constants were obtained from plots of In vt/vo versus time.
The incubation method was also used for papain. The inhibition incubation buffer for papain was 50 mM Hepes buffer at pH 7.5, containing 2.5 mM DTT and 2.5 mM EDTA. The assay used the substrate Z-Phe-Arg-pNA (53.7 μM) in the same buffer. The approximate concentration of papain added to the incubation buffer was 0.29 mg/mL. The release of p-nitroanilide was monitored at 405 nm with a Molecular Devices Thermomax microplate reader.

caspase-1 = biological target: T2, caspase-1 (Homo sapiens, UniProt P29466, D381E); assay: Caspase-1 progress curve assay; conditions: D381E variant, substrate Ac-YVAD-AMC, 30° C.
T2 construct: His tag (N); made in house; host or cells: E. coli
T2 sequence (P29466 120-297 limits assumed): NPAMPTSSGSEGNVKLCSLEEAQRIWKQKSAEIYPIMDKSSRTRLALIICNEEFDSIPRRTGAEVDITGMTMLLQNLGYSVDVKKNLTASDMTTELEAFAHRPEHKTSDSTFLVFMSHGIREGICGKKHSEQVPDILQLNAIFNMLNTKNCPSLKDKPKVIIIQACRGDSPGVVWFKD
T2 sequence (P29466 317-404 D381E limits assumed): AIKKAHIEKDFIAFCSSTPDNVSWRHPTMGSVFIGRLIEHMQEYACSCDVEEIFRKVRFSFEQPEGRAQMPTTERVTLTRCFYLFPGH
Text: Caspase-1. The preparation of the autolytically stable caspase-1 variant used in these studies has been described previously. Briefly, the variant contains a mutation (D381E) which renders it resistant to autolytic inactivation, but has no detectable affect on enzyme activity as compared to the naturally occurring enzyme. The enzyme variant was expressed in E. coli, purified first by immobilized metal chromatography via the N-terminal N-His tag, treated with excess oxidized glutathione to stabilize the reactive thiolate, and then re-purified by size-exclusion chromatography.
Inhibition data was measured using the progress curve assay method. Serial dilutions of each compound were prepared using an initial 8-fold dilution of a DMSO stock into HGE (100 mM HEPES,20% glycerol v/v, 0.5 mM EDTA), followed by seven serial two-fold dilutions into HGE and 12.5% DMSO, thus maintaining constant DMSO through the dilution series. Ten μL of diluted stocks or of vehicle (HGE and 12.5% DMSO) were placed in triplicate onto a 96-well microtiter plate, allowing several compounds to be tested on each plate. The plate was covered to minimize evaporation, and the plate was pre-warmed to 30° C. for 20 minutes. Enzyme was diluted into 10.0 mL of assay buffer (HGE, 5 mM DTT, plus 15 μM Ac-YVAD-AMC, 2 nM approximate final enzyme concentration), and this activated reaction mixture was added to the plate at 90 μL/well. Progress of substrate hydrolysis was monitored for 900 s in a LabSystems (Needham, Mass.) Fluoroskan Ascent fluorescent plate-reader using 385 and 460 nm excitation and emission filters, respectively, and a photomultiplier gain setting of 10. Triplicate curves were averaged and fit by nonlinear regression to the equation for irreversible inactivation shown below.
[formula] where F0 was routinely fixed to zero, since fluorescence values were always adjusted to an origin of 0. The second order rate constant kon (M^−1s^−1) was obtained from the slopes by linear regression, and errors represent the standard deviation of the regression slope.

caspase-3 = biological target: T3, caspase-3 (Homo sapiens, UniProt P42574); assay: Caspase-3 progress curve assay; conditions: substrate Z-DEVD-AFC; NI = no inhibition
T3 construct: made in house; host or cells: E. coli
T3 sequence (P42574 29-175 limits assumed): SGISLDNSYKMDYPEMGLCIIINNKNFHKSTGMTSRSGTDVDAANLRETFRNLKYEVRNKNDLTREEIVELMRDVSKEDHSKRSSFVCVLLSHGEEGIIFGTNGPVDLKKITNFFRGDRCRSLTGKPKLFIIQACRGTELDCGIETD
T3 sequence (P42574 176-277 limits assumed): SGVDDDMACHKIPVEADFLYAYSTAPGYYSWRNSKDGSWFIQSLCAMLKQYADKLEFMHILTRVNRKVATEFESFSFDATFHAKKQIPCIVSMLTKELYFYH
Experimental: Caspase-3, -6, and -8. Caspase-3, -6 and -8 were expressed in E. coli and purified according to methods previously described by Stennicke and Salvesen. Assays using the fluorogenic substrate Z-DEVD-AFC (λex=400 nm, λem=505 nm) were carried out on a Molecular Devices fMax fluorescence microplate reader. Inhibition rates and equilibria were determined by the progress curve method. The standard 100 μL reaction was started by adding enzyme to a mixture of substrate (final concentration of Z-DEVD-AFC 100 μM) and various amounts of inhibitor in buffer (50 mM Hepes, 100 mM NaCl, 0.1% (w/v) CHAPS, sucrose 10% (w/v), and 10 mM DTT, at pH 7.4). The caspases were pre-activated for 10 min at 37° C. in the presence of 10 mM DTT.

Compound | kinact/KI (papain) [M⁻¹ s⁻¹] | k2 caspase-1 (caspase-1) [M⁻¹ s⁻¹] | k2 caspase-3 (caspase-3) [M⁻¹ s⁻¹]
O=C(OCc1ccccc1)N(NCc1ccccc1)C(=O)[C@@H]1O[C@H]1CCc1ccccc1 (relative stereo) [Cbz-APhe-trans-EP-CH2CH2Ph, trans-3-(N^2-Benzyl-N^1-benzyloxycarbonylhydrazinocarbonyl)-2-(2-phenylethyl)oxirane] | 0.92 |  | 
CCOC(=O)[C@@H]1O[C@H]1C(=O)N(CC(C)C)NC(=O)[C@H](CC(C)C)NC(=O)[C@H](CC(C)C)NC(=O)OCc1ccccc1 [Cbz-Leu-Leu-ALeu-(2R, 3R)-EP-COOEt, (2R,3R)-3-(N^2-(N-Benzyloxycarbonylleucylleucyl)-N^1-isobutylhydrazinocarbonyl)oxirane-2-carboxylic Acid Ethyl Ester] | 20.6 |  | 
CC(C)[C@H](NC(=O)[C@H](CCC(=O)O)NC(=O)OCc1ccccc1)C(=O)NN(CC(=O)O)C(=O)[C@H]1O[C@@H]1C(=O)NCCc1ccccc1 [24h, (2S,3S)-2-(2-Phenethylcarbamoyl)-3-(N^2-(N-benzyloxycarbonylglutamylvalyl)-N^1-carboxymethylhydrazinocarbonyl)oxirane] |  | 41070 ± 440 | 27330 ± 5430
CC(C)C[C@H](NC(=O)OCc1ccccc1)C(=O)N[C@@H](CCC(=O)O)C(=O)N[C@H](C(=O)NN(CC(=O)O)C(=O)[C@H]1O[C@@H]1C(=O)OCc1ccccc1)[C@@H](C)O [26d, (2S,3S)-3-(N^2-(N-Benzyloxycarbonylleucylglutamylthreonyl)-N^1-carboxymethylhydrazinocarbonyl)oxirane-2-carboxylic Acid Benzyl Ester] |  | 43500 ± 2150 | 3520 ± 600
CC(C)[C@H](NC(=O)[C@H](CCC(=O)O)NC(=O)[C@H](CC(=O)O)NC(=O)OCc1ccccc1)C(=O)NN(CC(=O)O)C(=O)[C@H]1O[C@@H]1C(=O)N[C@@H](Cc1ccccc1)C(N)=O [25l, Cbz-Asp-Glu-Val-AAsp-(S,S)-EP-CO-Phe-NH2] |  | 9250 ± 2835 | 722180 ± 340860
CC(C)[C@H](NC(=O)CCc1ccccc1)C(=O)N[C@@H](C)C(=O)NN(CC(=O)O)C(=O)[C@H]1O[C@@H]1C(=O)OCCc1ccccc1 [23e, (2S,3S)-3-(N^2-(3-Phenylpropanoylvalylalanyl)-N^1-carboxymethylhydrazinocarbonyl)oxirane-2-carboxylic Acid Phenethyl Ester] |  | 56640 ± 9322 | 2110 ± 50
CC(C)[C@H](NC(=O)CCc1ccccc1)C(=O)N[C@@H](C)C(=O)NN(CC(=O)O)C(=O)[C@H]1O[C@@H]1C(=O)NCC(O)c1ccccc1 (stereo partly drawn) [23i (S,S), (2S,3S)-2-(2-Hydroxy-2-phenylethylcarbamoyl)-3-(N^2-(3-phenylpropanoylvalylalanyl)-N^1-carboxymethylhydrazinocarbonyl)oxirane] |  | 12260 ± 19 | 510 ± 100
CC[C@H](C)[C@H](NC(=O)OCc1ccccc1)C(=O)N[C@@H](CCC(=O)O)C(=O)N[C@H](C(=O)NN(CC(=O)O)C(=O)[C@@H]1O[C@H]1C(=O)OCc1ccccc1)[C@@H](C)O [27d (R,R), (2R,3R)-3-(N^2-(N-Benzyloxycarbonylisoleucylglutamylthreonyl)-N^1-carboxymethylhydrazinocarbonyl)oxirane-2-carboxylic Acid Benzyl Ester] |  | 13000 ± 980 | 3115 ± 125
CC[C@H](C)[C@H](NC(=O)OCc1ccccc1)C(=O)N[C@@H](CCC(=O)O)C(=O)N[C@H](C(=O)NN(CC(=O)O)C(=O)[C@@H]1O[C@H]1C(=O)NCc1ccccc1)[C@@H](C)O [27g, (2R,3R)-2-(2-Benzylcarbamoyl)-3-(N^2-(N-benzyloxycarbonylisoleucylglutamylthreonyl)-N^1-carboxymethylhydrazinocarbonyl)oxirane] |  | 18140 ± 4085 | 6475 ± 240
CC[C@H](C)[C@H](NC(=O)OCc1ccccc1)C(=O)N[C@@H](CCC(=O)O)C(=O)N[C@H](C(=O)NN(CC(=O)O)C(=O)[C@H]1O[C@@H]1C(=O)OCc1ccccc1)[C@@H](C)O [27d (S,S), (2S,3S)-3-(N^1-(N-Benzyloxycarbonylisoleucylglutamylthreonyl)-N^1-carboxymethylhydrazinocarbonyl)oxirane-2-carboxylic Acid Benzyl Ester] |  | 45788 | 9545 ± 960
CCOC(=O)[C@H]1O[C@@H]1C(=O)N(CC(=O)O)NC(=O)[C@@H](NC(=O)[C@H](CCC(=O)O)NC(=O)[C@H](CC(=O)O)NC(=O)OCc1ccccc1)C(C)C [25c (S,S), (2S,3S)-3-(N^2-(N-Benzyloxycarbonylaspartylglutamylvalyl)-N^1-carboxymethylhydrazinocarbonyl)oxirane-2-carboxylic Acid Ethyl Ester] |  | 11840 ± 1214 | 1074440 ± 154710
(2R,3R)-2-(1-Amido-phenethylcarbamoyl)-3-(N^2-(N-benzyloxycarbonylaspartylglutamylvalyl)-N^1-carboxymethylhydrazinocarbonyl)oxirane [24l] |  | 1040 ± 455 | 470 ± 77
CC(C)CC(NC(=O)[C@H]1O[C@@H]1C(=O)N(CC(=O)O)NC(=O)[C@H](C)NC(=O)[C@@H](NC(=O)CCc1ccccc1)C(C)C)C(N)=O (stereo partly drawn) [23k, (2S,3S)-2-(3-Methyl-1-amido-butylcarbamoyl)-3-(N^2-(3-phenylpropanoylvalylalanyl)-N^1-carboxymethylhydrazinocarbonyl)oxirane] |  | 26090 ± 2562 | 420 ± 6
CC(C)[C@H](NC(=O)CCc1ccccc1)C(=O)N[C@@H](C)C(=O)NN(CC(=O)O)C(=O)[C@H]1O[C@@H]1C(=O)NCCc1ccccc1 [23h (S,S), (2S,3S)-2-(2-Phenethylcarbamoyl)-3-(N^2-(3-phenylpropanoylvalylalanyl)-N^1-carboxymethylhydrazinocarbonyl)oxirane] |  | 17150 ± 2254 | 1110 ± 100
CCOC(=O)[C@H]1O[C@@H]1C(=O)N(CC(=O)O)NC(=O)[C@@H](NC(=O)[C@H](CCC(=O)O)NC(=O)[C@@H](NC(=O)OCc1ccccc1)[C@@H](C)CC)[C@@H](C)O [27c (S,S), (2S,3S)-3-(N^2-(N-Benzyloxycarbonylisoleucylglutamylthreonyl)-N^1-carboxymethylhydrazinocarbonyl)oxirane-2-carboxylic Acid Ethyl Ester] |  | 12372 | 4080 ± 360
